According to patent EP1169044B1, “USE OF FUCOSYLATED SIALYLATED N-ACETYL LACTOSAMINE CARBOHYDRATE STRUCTURES FOR INHIBITION OF BACTERIAL ADHERENCE” (Borén, Thomas, priority 1999, dated 2000):

What was measured:
Assay type in all cases: binding, Helicobacter pylori
[1] = system: CCUG 17875 and the babA1A2 double mutant; assay: H. pylori adherence to immobilized neoglycoconjugates in ELISA; details: strain not specified (CCUG 17875 and babA1A2 double mutant tested)
Description: CCUG 17875 (75) and the babA1A2 double mutant (DM) were added to the ELISA in a series labelled A-F. Adherent bacteria were detected by polyclonal rabbit antisera against H. pylori CCUG 17875. The products of the horseradish peroxidase reaction were quantified in a microtiter plate reader.
Sialyl-Lewis a-PAA, sialyl-Lewis x-PAA, 3'-HSO3-Lewis a-PAA, and 3'-HSO3-Lewis x-PAA, i.e. synthesised sialylated or sulphated Lewis antigens conjugated to polyacrylamide backbone were obtained from Syntesome GmbH, Munchen, Germany. The conjugates were added in dilution series of 1µg, 100ng, and 10 ng, in 90µl 1% BSA PBS 0.05% Tween, to streptavidin coated microtiter (ELISA) plates (Roche Diagnostics Scandinavia AB, Bromma, Sweden). After one hour of incubation in room temperature, the plate was blocked over night at 4°C, with 500ng biotinylated albumin in 300µl 1% BSA PBS 0.005% Tween. […] Adherent bacteria were detected by polyclonal rabbit antisera at a dilution of 1:3000, raised against formalin fixed bacteria of strain CCUG 17875 in New Zealand rabbits (Agrisera AB, Vännäsby, Sweden) The antibodies were allowed to incubate in 1% BSA in PBS 0.05% Tween for 30 minutes at room temperature. […] The products of the horseradish peroxidase reaction were quantified in a microtiter plate reader at 490 nm.

H. pylori strains = assay: radio immuno analysis (RIA) with 125I-labelled neoglycoconjugates; details: strains of Fig. 4 (BabA2 mutant, babA1A2 mutant, CCUG 17875, CCUG 17874), 400 ng conjugate, 30 min
Description: Bars, from the left to the right; The sialyl-alfa2.61actose-, sialyl-alfa2.31actose-, sialyl-Lewis a-, sialyl-Lewis x-, and Lewis b-, synthesised sialyl-Lewis x- sialyl-acetyllactosaminee, both with a either a 3 carbon or 14 carbon (extended/hydrophilic) spacer, conjugated to albumin, Finally, the histo-blood group antigen Lewis y (synthesised penta-saccharide) (V. Behar and S.J. Danishefsky, Angew. Chem. Int. Ed. Engi, 1994, 33, no. 14, 1468.), was analysed as a neo-glycoconjugate.
(§1) The sialyl-alfa2.3lactose-, sialyl-alfa2.61actose-, sialyl-Lewis a-, and Lewis b-oligosaccharide antigens used for neoglycoconjugate preparations were purified by HPLC, structurally identified and characterized with NMR-spectroscopy, and more than 95% pure. These conjugates were attached to albumin with an APD (acetylphenylenediamine) spacer attached to the carbohydrate by reductive animation and thus the terminal reducing monosaccharide unit of the oligosaccharide is reduced and is present as an aminoalditol, IsoSep AB, Tullinge, Sweden (T. Borén, P. Falk, K. A. Roth, G. Larson, and S. Normark, Science. 262, 1892 (1993), P. D. Rye, Nature Biotechnology 2, 155 (1996)). The synthesised sialyl-Lewis x- tetrasaccharide antigen was conjugated to albumin with the MPE (mercaptopropionyl-amidoethyl) -spacer, IsoSep AB. Synthesised sialyl-Lewis x-tetrasaccharide and sialyl-acetyllactosaminee, both with a either a 3 carbon or 14 carbon (extended/hydrophilic) spacer, conjugated to albumin, were obtained from Dextra Laboratories, Reading, UK. The RIA (Fig. 4) was performed according to (P. Falk, T. Borén, D. Haslam, M. G. Caparon, Meth. Cell Biol. 45, 161 (1994)) with minor modifications; the glycoconjugates were ^125I-labelled by the Chloramine T method. 1 ml of bacteria (A600= OD 0.10) was incubated with 400 ng of ^125I-labelled conjugate (that is an excess of receptor substrate) for 30 min. in phosphate buffered saline (PBS), 0.5 % albumin, 0.05 % Tween-20 (BB-buffer). After centrifugation, the ^125I-activity bound to the bacterial pellet was measured by gamma scintillation counting. Binding experiments were reproducible and performed in triplets. In addition, the level of binding-activity within the strain was stabile.

[2] = system: 91 Swedish clinical H. pylori isolates; details: out of 91 clinical isolates
Description: Bacteria were grown at 37°C in 10 % CO2 and 5% O2 (T. Borén, P. Falk, K. A. Roth, G. Larson, and S. Normark, Science.. 262, 1892(1993), for 2 days for optimal Le b antigen binding activity.

babA1A2-mutant = assay: Scatchard affinity analysis with sialylated conjugates
Source text: as §1, with “1 ml of bacteria (A600= OD 0.10) was incubated with 400 ng of ^125I-labelled conjugate (that is an excess of receptor substrate) for 30 min. in phosphate buffered saline (PBS), 0.5 % albumin, 0.05 % Tween-20 (BB-buffer).” left out, “Binding experiments were reproducible and performed in triplets. In addition, the level of binding-activity within the strain was stabile.” left out

How did the “binding to immobilised antigen in ELISA (in words)” value [1] turn out when “HSO3-3Galβ4GlcNAcβ3Galβ4Glc 3 Fucα1 [3'HSO3Lewis x]” was run?
The value was “no binding above background”.

Which “binding to immobilised antigen in ELISA (in words)” value [1] does the source give for “HSO3-3Galβ3GlcNAcβ3Galβ4Glc 4 Fucα1 [3'HSO3Lewis a]” here?
The value was “no binding above background”.

With `CC(=O)NC1C(O)CC(OCC2OC(OC3C(CO)OC(O)C(O)C3O)C(O)C(O)C2O)(C(=O)O)OC1C(O)C(O)CO` (stereo not drawn) [sialyl-alfa2.61actose antigen, Neu5Acα6Galβ4Glc] as the molecule, how does the “binding of 125I-labelled neoglycoconjugate (in words)” value (H. pylori strains) read?
Its value is “Poor binding”.

What about the “binding of 125I-labelled neoglycoconjugate (in words)” value (H. pylori strains; listed as sialyl-alfa 2,6 lactose conjugate) of the same molecule?
Its value is “did not demonstrate any binding activity”.

`CC(=O)NC1C(OC2C(O)C(O)OC(CO)C2O)OC(CO)C(OC2OC(CO)C(O)C(O)C2OC2OC(C)C(O)C(O)C2O)C1OC1OC(C)C(O)C(O)C1O` (stereo not drawn) [Lewis y penta-saccharide antigen, Fucα2Galβ4GlcNAcβ3Gal 3 Fucα1] was tested. Which “binding of 125I-labelled neoglycoconjugate (in words)” value (H. pylori strains) did it give?
Its value is “did not demonstrate any binding activity”.

And the “binding of 125I-labelled neoglycoconjugate (in words)” value (H. pylori strains; listed as Lewis y pentasacharide antigen)?
The value was “did not detect any binding activity”.

What about the “number of isolates that bound the neoglycoconjugate antigen” value [2] of the same molecule?
The value was “None”.

Which “binding of 125I-labelled neoglycoconjugate (in words)” value (H. pylori strains) does the source give for “Neu5Acα3Galβ4GlcNAc [alfa2.31actoseamine with a 14 carbon spacer]” here?
Its value is “rather efficient binding”.

Which results are given for `CC(=O)N[C@H]1[C@H]([C@H](O)[C@H](O)CO)O[C@@](O[C@H]2[C@@H](O)[C@@H](CO)O[C@@H](O[C@H]3[C@H](O)[C@@H](O)C(O)O[C@@H]3CO)[C@@H]2O)(C(=O)O)C[C@@H]1O` (stereo partly drawn) [sialyl-alfa2.31actose antigen, Neu5Acα3Galβ4Glc]?
binding of 125I-labelled neoglycoconjugate (in words) (H. pylori strains): Poor binding; fold lower affinity (babA1A2-mutant; compared with the fucosylated sialyl-Lewis x structures): 20 fold; Kd (babA1A2-mutant; read-out: affinity according to Scatchard): 100 nM

Which “binding of 125I-labelled neoglycoconjugate (in words)” value (H. pylori strains) does the source give for “Neu5Acα3Galβ4GlcNAc [equivalent structure linked by a shorter, 3 carbon spacer]” here?
The value was “much reduced in binding”.
